Laboratory results reported in patent publication US20090156577A1, “7-AMINO ALKYLIDENYL-HETEROCYCLIC QUINOLONES AND NAPHTHYRIDONES” (priority 2004, published 2009).
≈ marks a conversion by molar mass, not a printed value. Like-named read-outs stand apart in the source and are kept apart here.

System: pathogenic bacteria
Experiment: MIC by microdilution broth method (NCCLS M7-A4), in vitro antibacterial activity
Assay type: cell-based
In short: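 MIC read after 35 °C incubation for 16–20 h relative to drug-free growth wells. Cation-adjusted Mueller-Hinton broth with two-fold compound dilutions, organisms at roughly 5×10^4 CFU/well final. Method follows NCCLS document M7-A4.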

[1] = Staphylococcus aureus, Organism A: Staphylococcus aureus OC4172, read-out: MIC
[2] = Streptococcus pneumoniae, ATCC49619, Organism E: Streptococcus pneumoniae ATCC 49619, read-out: MIC
[3] = Streptococcus pneumoniae, Organism B: fluoroquinolone-resistant clinical isolate of Streptococcus pneumoniae (QRDR amino acid substitutions)
[4] = Streptococcus pneumoniae, Organism C: fluoroquinolone-resistant clinical isolate of Streptococcus pneumoniae (QRDR amino acid substitutions)
[5] = Streptococcus pneumoniae, Organism D: fluoroquinolone-resistant clinical isolate of Streptococcus pneumoniae (QRDR amino acid substitutions)

| Structure (SMILES) | MIC [1] [µg/mL] | MIC [2] [µg/mL] | MIC [3] [µg/mL] | MIC [4] [µg/mL] | MIC [5] [µg/mL] |
| --- | --- | --- | --- | --- | --- |
| COc1c(N2CCOC/C(=C(\F)CN)C2)c(F)cc2c(=O)c(C(=O)O)cn(C3CC3)c12 [Compound 507, (Z)-7-[6-(2-Amino-1-fluoro-ethylidene)-[1,4]oxazepan-4-yl]-1-cyclopropyl-6-fluoro-8-methoxy-4-oxo-1,4-dihydro-quinoline-3-carboxylic acid] | 0.06 (≈ 0.138 µM) | 0.25 (≈ 0.574 µM) | 0.12 (≈ 0.276 µM) | 2 (≈ 4.59 µM) | 2 (≈ 4.59 µM) |
| COc1c(N2CCOC/C(=C(/F)CN)C2)c(F)cc2c(=O)c(C(=O)O)cn(C3CC3)c12 [Compound 508, (E)-7-[6-(2-Amino-1-fluoro-ethylidene)-[1,4]oxazepan-4-yl]-1-cyclopropyl-6-fluoro-8-methoxy-4-oxo-1,4-dihydro-quinoline-3-carboxylic acid] | 0.12 (≈ 0.276 µM) | 1 (≈ 2.3 µM) | ≤ 4 | > 16 | 8 (≈ 18.4 µM) |
